Results from US8394832B2, “Methods and compositions using immunomodulatory compounds for the treatment of immunodeficiency disorders” (Celgene Corporation, priority 2004, dated 2013).

Assays:
[1] = system: TNFα; test: TNFα ELISA of treated B cells; format: cell-based, human; settings: activated CD19+ cells (FIG. 4)
Procedure: Human buffy coat (50 ml) was diluted with 50 ml sterile PBS (Ca^++, Mg^++ free), and mixed gently. A 25 ml aliquot of diluted buffy coat was transferred to each 50 ml centrifuge tube, and Histopaque-1077 (14 ml, #1077-1, Sigma) was gently layered into the bottom of the tube. The sample was centrifuged at 2,000 rpm for 30 min at room temperature. The interface containing mononuclear cells was transferred into 50 ml centrifuge tube, and washed once with PBS (1200 rpm, 5 min). The supernatant was discarded. Cell pellet was resuspended in Miltenyi buffer. Anti-CD19^+ microbeads were added to the suspension (10^7 cells in 80 μl of buffer, 20 μl antibody beads for 10^7 cells) and incubated for 15 min at 4° C. Cell pellet was washed once and resuspended in 1 ml Miltenyi buffer. The cell suspension was added to the magnetic column, washed with 10 ml Miltenyi buffer in the column. CD19^+ cells are released by 1 ml Miltenyi Buffer without magnetic field. CD19^+ cells were washed twice with RPMI complete medium. B cells (2×10^5) were plated in 96 well plate. […]
TNFα levels in 1,3-dioxo-(2,6-dioxopiperidin-3-yl)-4-aminoisoindoline or 1-oxo-(2,6-dioxopiperidin-3-yl)-4-aminoisoindoline treated B cells were determined using TNFα ELISA.

[2] = system: B cells; test: B cell proliferation by BrdU ELISA; format: cell-based, human; settings: 3 days (FIG. 7A)
Procedure: (§1) Human buffy coat (50 ml) was diluted with 50 ml sterile PBS (Ca^++, Mg^++ free), and mixed gently. A 25 ml aliquot of diluted buffy coat was transferred to each 50 ml centrifuge tube, and Histopaque-1077 (14 ml, #1077-1, Sigma) was gently layered into the bottom of the tube. The sample was centrifuged at 2,000 rpm for 30 min at room temperature. The interface containing mononuclear cells was transferred into 50 ml centrifuge tube, and washed once with PBS (1200 rpm, 5 min). The supernatant was discarded. Cell pellet was resuspended in Miltenyi buffer. Anti-CD19^+ microbeads were added to the suspension (10^7 cells in 80 μl of buffer, 20 μl antibody beads for 10^7 cells) and incubated for 15 min at 4° C. Cell pellet was washed once and resuspended in 1 ml Miltenyi buffer. The cell suspension was added to the magnetic column, washed with 10 ml Miltenyi buffer in the column. CD19^+ cells are released by 1 ml Miltenyi Buffer without magnetic field. CD19^+ cells were washed twice with RPMI complete medium. B cells (2×10^5) were plated in 96 well plate.
B cells were pretreated with 1,3-dioxo-(2,6-dioxopiperidin-3-yl)-4-aminoisoindoline or 1-oxo-(2,6-dioxopiperidin-3-yl)-4-aminoisoindoline at the concentrations of 60 μM, 6 μM, 0.6 μM, 0.06 μM, 0.006 μM, and 0.0006 μM for 30 min, then were added 2 μg/ml of anti-IgM, 2 μg/ml of anti CD40, 40 ng/ml IL-4, 100 ng/ml of recombinant BAFF, and/or 0.5 μg/ml of LPS. B cells were typically treated with the immunomodulatory compound alone or in presence of one or more of above stimuli for 3 days. Stimulated B cells with or without the treatment with immunomodulatory compound were used for cell proliferation assay and cytokines analysis.
The crosslinking of B cell receptor antigen (“BCR”) is the primary signal for B cell activation in response to antigen, and is critical in initializing subsequent B cell activation, proliferation, and differentiation. To assess B cell activation, B cells were treated with 1,3-dioxo-(2,6-dioxopiperidin-3-yl)-4-aminoisoindoline or 1-oxo-(2,6-dioxopiperidin-3-yl)-4-aminoisoindoline in presence of stimuli for 3 days. 25 μl BrdU was added to 250 μl cell culture 24 hours before harvesting cells. B cells were dried at 60° C. after removal of labeling supernatant. 100 μl FixDenat solution was added to fix cells for 30 min at room temperature. FixDenat solution was removed by tapping plate, then 100 μl anti-BrdU-POD was added each well for 90 min, at room temperature, and the plate was washed three 3 times. 100 μl of substrate was added to plate for 10 min, then 100 μl stop solution was added. Absorbance was measured by using an ELISA microplate reader (Molecular Devices) at OD 450 nm. […]

[3] = system: IgE synthesis; test: IgE ELISA of human PBMC treated with anti CD40 and IL-4 for three weeks; format: cell-based; settings: 504 h, human PBMCs in presence of CD40+IL-4 for three weeks (FIGS. 11A and B), read-out: IC50 of inhibition of IgE synthesis
Procedure: Human PBMCs (1×10^6/ml) were treated with immunomodulatory compounds in presence of anti-CD40 (2 ug/ml) and IL-4 (40 ng/ml) for three weeks. Fifty microliter of supernatant was used for IgE ELISA, following the manufacturer's instruction. The absorbance was read by ELISA reader at OD=450 nm.
IL-4 is a unique signal for B cells to produce IgE during the immunoglobulin class switch. To assess whether immunomodulatory compounds can regulated IgE synthesis, 1,3-dioxo-(2,6-dioxopiperidin-3-yl)-4-aminoisoindoline or 1-oxo-(2,6-dioxopiperidin-3-yl)-4-aminoisoindoline was incubated with human PBMCs in presence of CD40+IL-4 for three weeks. […] (FIGS. 11A and B).
Treatment of PBMC: 200 μl of 1×10^6/ml human PBMC were plated in 96 well plate, and the cells were pretreated with IMiDs at indicated concentrations (60, 6, 0.6, 0.06, 0.006, 0.0006 uM) for 30 minutes. Anti CD40 (#AHS4002, Biosource, 2 μg/ml) and IL-4 (#200-04, Pepro Tech, 40 ng/ml) were added to each well. Human PBMC in presence of IMiDs, anti CD40 and IL-4 were incubated for three weeks. Fifty microliters of supernatant was subjected to IgE ELISA.
IgE ELISA: The IgE ELISA Quantitation Kit was purchased from Bethyl Laboratories, Inc. (#E80-108). […] The ELISA plate was read at OD=450 nm in ELISA plate reader.

[4] = system: CD69; test: FACS analysis of CD69 expression in CD19+ B cells; format: cell-based, human
Procedure: as §1
B cells were treated with 1,3-dioxo-(2,6-dioxopiperidin-3-yl)-4-aminoisoindoline (FIG. 3A) or 1-oxo-(2,6-dioxopiperidin-3-yl)-4-aminoisoindoline (FIG. 3B) in presence of anti IgM, anti CD40 and IL-4 for 3 days. The suspension of B cells was washed by PBS once, and incubated with FITC conjugated anti human CD69 for 30 min in the dark. B cells were subject to FACS analysis using flow cytometer (EPICS XL-MCL, Beckman Coulter Company).
To assess whether the effects of immunomodulatory compounds on IL-4 signaling impact on IL-4 mediated B cell activation, FACS array of immediate early expression marker CD69 expression at triplicates and six doses was examined using 1,3-dioxo-(2,6dioxopiperidin-3-yl)-4-aminoisoindoline or 1-oxo-(2,6-dioxopiperidin-3-yl)-4-aminoisoindoline. […] Thus, it is clear that immunomodulatory compounds have no impact on this process.

[5] = cited from earlier work; for hygroscopicity: crystalline polymorphic form; for interconversion of the polymorphic form: solvent system, humidity or heating

## Nc1cccc2c1CN(C1CCC(=O)NC1=O)C2=O (stereo not shown) [1-oxo-(2,6-dioxopiperidin-3-yl)-4-aminoisoindoline]
[1]
  TNFα production in B cells: dose dependently enhance
[2]; combined with IgM (anti-IgM)
  B cell proliferation: enhance
[2]; compound alone
  effect on B cell activation/proliferation: minimal effect
[3]
  IC50: 100 to 300 nM
[4]; CD19+ B cells treated with anti human IgM, anti human CD40 and IL-4, 3 days (FIGS. 3A, 3B)
  CD69 expression: dose-dependently enhanced
[4]; IL-4 stimulated CD19+ B cells, triplicates, six doses (FIGS. 10A and B)
  CD69 expression: neither immunomodulatory compound inhibited

## Nc1cccc2c1CN(C1CCC(=O)NC1=O)C2=O (stereo not shown) [Form A, 3-(4-amino-1-oxo-1,3 dihydro-isoindol-2-yl)-piperidene-2,6-dione]
[5]; Form A among anhydrous polymorphs, Form E in aqueous solvent systems
  relative stability of the polymorphic form: most thermodynamically stable anhydrous polymorph
[5]
  hygroscopicity: weakly or not hygroscopic

## Nc1cccc2c1CN(C1CCC(=O)NC1=O)C2=O (stereo not shown) [Form B, 3-(4-amino-1-oxo-1,3 dihydro-isoindol-2-yl)-piperidene-2,6-dione]
[5]
  interconversion of the polymorphic form: converts to Form E in aqueous solvent systems

## Nc1cccc2c1CN(C1CCC(=O)NC1=O)C2=O (stereo not shown) [Form C, 3-(4-amino-1-oxo-1,3 dihydro-isoindol-2-yl)-piperidene-2,6-dione]
[5]
  hygroscopicity: not hygroscopic below about 85% RH
  interconversion of the polymorphic form: can convert to Form B at higher relative humidities

## Nc1cccc2c1CN(C1CCC(=O)NC1=O)C2=O (stereo not shown) [Form D, 3-(4-amino-1-oxo-1,3 dihydro-isoindol-2-yl)-piperidene-2,6-dione]
[5]
  hygroscopicity: either weakly or not hygroscopic
  interconversion of the polymorphic form: will typically convert to Form B when stressed at higher relative humidities
